Tests used:
[1] = log P by HPLC on reversed-phase column (C 18), EEC Directive 79/831 Annex V.A8; format: physicochemical; conditions: for logP: HPLC, C 18, 40° C., 0.1% aqueous formic acid and acetonitrile
Procedure: In table 1, the log P values were determined in accordance with EEC Directive 79/831 Annex V.A8 by HPLC (High Performance Liquid Chromatography) on a reversed-phase column (C 18), using the method described below: Temperature: 40° C.; Mobile phases: 0.1% aqueous formic acid and acetonitrile; linear gradient from 10% acetonitrile to 90% acetonitrile. Calibration was carried out using unbranched alkan-2-ones (comprising 3 to 16 carbon atoms) with known log P values (determination of the log P values by the retention times using linear interpolation between two successive alkanones). lambda-max-values were determined using UV-spectra from 200 nm to 400 nm and the peak values of the chromatographic signals.

Uromyces appendiculatus = assay: In vivo preventive test on Uromyces appendiculatus (bean rust); conditions: for Efficacy: Table F2, dose 500 ppm; for protection: dose of 500 ppm of active ingredient
Procedure: (§1) Example F: In Vivo Preventive Test on Uromyces Appendiculatus (Bean Rust) Solvent: 5% by volume of Dimethyl sulfoxide • 10% by volume of Acetone Emulsifier: 1 μL of Tween® 80 per mg of active ingredient The active ingredients are made soluble and homogenized in a mixture of Dimethyl sulfoxide/Acetone//Tween® 80 and then diluted in water to the desired concentration. The young plants of bean are treated by spraying the active ingredient prepared as described above. Control plants are treated only with an aqueous solution of Acetone/Dimethyl sulfoxide/Tween® 80. After 24 hours, the plants are contaminated by spraying the leaves with an aqueous suspension of Uromyces appendiculatus spores. The contaminated bean plants are incubated for 24 hours at 20° C. and at 100% relative humidity and then for 10 days at 20° C. and at 70-80% relative humidity. The test is evaluated 11 days after the inoculation. 0% means an efficacy which corresponds to that of the control plants while an efficacy of 100% means that no disease is observed.

Puccinia recondita = assay: In vivo preventive test on Puccinia recondita (brown rust on wheat)
Procedure: as §1, with “B:” for “F:”, “Puccinia Recondita (Brown Rust on Wheat)” for “Uromyces Appendiculatus (Bean Rust)”, “wheat” for “bean”, “Puccinia recondita” for “Uromyces appendiculatus”

Alternaria brassicae = assay: In vivo preventive test on Alternaria brassicae (leaf spot on radish); conditions: for protection: dose of 100 and 500 ppm of active ingredient
Procedure: Example A: In Vivo Preventive Test on Alternaria Brassicae (Leaf Spot on Radish) Solvent: 5% by volume of Dimethyl sulfoxide • 10% by volume of Acetone Emulsifier: 1 μL of Tween® 80 per mg of active ingredient The active ingredients are made soluble and homogenized in a mixture of Dimethyl sulfoxide/Acetone//Tween® 80 and then diluted in water to the desired concentration. The young plants of radish are treated by spraying the active ingredient prepared as described above. Control plants are treated only with an aqueous solution of Acetone/Dimethyl sulfoxide/Tween® 80. After 24 hours, the plants are contaminated by spraying the leaves with an aqueous suspension of Alternaria brassicae spores. The contaminated radish plants are incubated for 6 days at 20° C. and at 100% relative humidity. The test is evaluated 6 days after the inoculation. 0% means an efficacy which corresponds to that of the control plants while an efficacy of 100% means that no disease is observed.

[2] = dose of 100 and 500 ppm of active ingredient
[3] = dose of 500 ppm of active ingredient

Row | SMILES | logP [1] | further results
1 | CC(Cc1ncc(C(F)(F)F)cc1-c1csc2ccccc12)N(C(=S)c1c(C(F)F)nn(C)c1F)C1CC1 (stereo not drawn) [I.14] | 5.32 | 
2 | CC(Cc1ncc(C(F)(F)F)cc1-c1coc2ccccc12)N(C(=O)c1c(C(F)F)nn(C)c1F)C1CC1 (stereo not drawn) [I.04] | 4.46 | 
3 | Cc1cscc1-c1cc(C(F)(F)F)cnc1CC(C)N(C(=O)c1c(C(F)F)nn(C)c1F)C1CC1 (stereo not drawn) [I.07] | 4.37 | 
4 | Cc1cc(C(=O)N(C(C)Cc2nc3ccc(C(F)(F)F)cn3c2-c2ccsc2)C2CC2)c(C)o1 (stereo not drawn) [I.24] | 3.35 | 
5 | CC(Cc1nc2ccc(C(F)(F)F)cn2c1-c1ccsc1)N(C(=O)c1ccsc1Cl)C1CC1 (stereo not drawn) [I.23] | 4.44 | 
6 | CC(Cc1ncc(C(F)(F)F)cc1-c1cnc2ccccc2c1)N(C(=O)c1c(C(F)F)nn(C)c1F)C1CC1 (stereo not drawn) [I.01] | 3.53 | 
7 | CC(Cc1ncc(C(F)(F)F)cc1-c1cnc2ccccc2c1)N(C(=S)c1c(C(F)F)nn(C)c1F)C1CC1 (stereo not drawn) [I.13] | 3.99 | 
8 | CC(Cc1ncc(C(F)(F)F)cc1-c1ccoc1)N(C(=O)c1c(C(F)F)nn(C)c1F)C1CC1 (stereo not drawn) [I.05] | 3.76 | Efficacy (Uromyces appendiculatus): 100%; protection (Uromyces appendiculatus): total protection; Efficacy (Puccinia recondita; Table B3, dose 100 ppm): 93%; Efficacy (Puccinia recondita; Table B3, dose 500 ppm): 100%; protection (Puccinia recondita; [2]): at least 90%
9 | COc1ccnc(-c2c(CC(C)N(C(=O)c3c(C(F)F)nn(C)c3F)C3CC3)nc3ccc(C(F)(F)F)cn23)n1 (stereo not drawn) [I.19] | 2.44 | 
10 | CC(Cc1nc2ccc(C(F)(F)F)cn2c1-c1csc2ccccc12)N(C(=O)c1c(C(F)F)nn(C)c1F)C1CC1 (stereo not drawn) [I.17] | 3.57 | 
11 | CC(Cc1ncc(C(F)(F)F)cc1-c1cccnc1)N(C(=O)c1c(C(F)F)nn(C)c1F)C1CC1 (stereo not drawn) [CMP2, N-cyclopropyl-3-(difluoromethyl)-5-fluoro-1-methyl-N-{1-[5-(trifluoromethyl)-3,3′-bipyridin-2-yl]propan-2-yl}-1H-pyrazole-4-carboxamide, reference compound] |  | Efficacy (Uromyces appendiculatus): 0%; protection (Uromyces appendiculatus): no protection; Efficacy (Puccinia recondita; Table B3, dose 100 ppm): 38%; Efficacy (Puccinia recondita; Table B3, dose 500 ppm): 69%; protection (Puccinia recondita; [2]): less than 70%
12 | CC(Cc1ncc(C(F)(F)F)cc1-c1csc2ccccc12)N(C(=O)c1c(C(F)F)nn(C)c1F)C1CC1 (stereo not drawn) [I.02] | 4.72 | 
13 | CC(Cc1ncc(C(F)(F)F)cc1-c1ccsc1)N(C(=O)c1cn(C)nc1C(F)F)C1CC1 (stereo not drawn) [I.09] | 3.67 | 
14 | CC(Cc1nc2ccc(C(F)(F)F)cn2c1-c1cccc2cccnc12)N(C(=O)c1c(C(F)F)nn(C)c1F)C1CC1 (stereo not drawn) [I.18] | 2.44 | 
15 | CC(Cc1nc2ccc(C(F)(F)F)cn2c1-c1cccnc1)N(C(=O)c1c(C(F)F)nn(C)c1F)C1CC1 (stereo not drawn) [CMP1, N-cyclopropyl-3-(difluoromethyl)-5-fluoro-1-methyl-N-{1-[3-(pyridin-3-yl)-6-(trifluoromethyl)imidazo[1,2-a]pyridin-2-yl]propan-2-yl}-1H-pyrazole-4-carboxamide, reference compound] |  | Efficacy (Puccinia recondita; Table B2, dose 500 ppm): 0%; protection (Puccinia recondita; [3]): no protection; Efficacy (Alternaria brassicae; Table A2, dose 100 ppm): 0%; Efficacy (Alternaria brassicae; Table A2, dose 500 ppm): 43%; protection (Alternaria brassicae): less than 50%
16 | CC(Cc1ncc(C(F)(F)F)cc1-c1ccsc1)N(C(=O)c1c(C(F)F)nn(C)c1F)C1CC1 (stereo not drawn) [I.06, N-cyclopropyl-3-(difluoromethyl)-5-fluoro-1-methyl-N-{1-[3-(3-thienyl)-5-(trifluoro-methyl)-pyridin-2-yl]propan-2-yl}-1H-pyrazole-4-carboxamide] |  | chromatographic logP ([1]; reversed-phase HPLC column (C 18), preparation example 1): 4.03

Further lines, with some results ahead:

Row | logP [1] | SMILES | further results
17 | 4.20 | CC(Cc1ncc(C(F)(F)F)cc1-c1ccnc2cc(Cl)ccc12)N(C(=O)c1c(C(F)F)nn(C)c1F)C1CC1 (stereo not drawn) [I.03] | 
18 | 3.78 | CC(Cc1ncc(C(F)(F)F)cc1-c1ccnc2cc(Cl)ccc12)N(C(=O)c1cn(C)nc1C(F)F)C1CC1 (stereo not drawn) [I.12] | 
19 | 1.67 | CC(Cc1ncc(C(F)(F)F)cc1CN1CCCCC1)N(C(=O)c1cn(C)nc1C(F)F)C1CC1 (stereo not drawn) [I.22] | 
20 | 3.55 | CC(Cc1ncc(C(F)(F)F)cc1-c1ccco1)N(C(=O)c1cn(C)nc1C(F)F)C1CC1 (stereo not drawn) [I.08] | 
21 | 3.99 | Cc1cscc1-c1cc(C(F)(F)F)cnc1CC(C)N(C(=O)c1cn(C)nc1C(F)F)C1CC1 (stereo not drawn) [I.10] | 
22 | 3.08 | CC(Cc1nc2ccc(C(F)(F)F)cn2c1-c1ccsc1)N(C(=O)c1nn(C)nc1C(F)F)C1CC1 (stereo not drawn) [I.20] | 
23 | 3.39 | Cc1nc(C(F)F)c(C(=O)N(C(C)Cc2nc3ccc(C(F)(F)F)cn3c2-c2ccsc2)C2CC2)s1 (stereo not drawn) [I.25] | 
24 | 2.8 | CC(Cc1nc2ccc(C(F)(F)F)cn2c1-c1ccsc1)N(C(=O)c1c(C(F)F)nn(C)c1F)C1CC1 (stereo not drawn) [I.15] | 
25 | 2.63 | CC(Cc1nc2ccc(C(F)(F)F)cn2c1-c1ccoc1)N(C(=O)c1c(C(F)F)nn(C)c1F)C1CC1 (stereo not drawn) [I.16] | Efficacy (Puccinia recondita; Table B2, dose 500 ppm): 78%; protection (Puccinia recondita; [3]): at least 70%; Efficacy (Alternaria brassicae; Table A2, dose 100 ppm): 86%; Efficacy (Alternaria brassicae; Table A2, dose 500 ppm): 86%; protection (Alternaria brassicae): at least 80%
26 | 4.11 | CC(Cc1ncc(C(F)(F)F)cc1-c1coc2ccccc12)N(C(=O)c1cn(C)nc1C(F)F)C1CC1 (stereo not drawn) [I.11] | 
27 | 1.82 | CC(Cc1ncc(C(F)(F)F)cc1CN1CCCCC1)N(C(=O)c1c(C(F)F)nn(C)c1F)C1CC1 (stereo not drawn) [I.21] | 

Reference: patent publication US10214510B2, “N-cycloalkyl-N-(biheterocyclylethylene)-(thio)carboxamide derivatives” (Bayer CropScience Aktiengesellschaft, priority 2015, dated 2019)
